# Where two headings read alike, the source gives them in different places.
# Assays:
# Assay in all cases: Kinome profiler screen
# Type in all cases: biochemical
# ULK3 = target: T1, ULK3 (Homo sapiens, UniProt Q6PHR2); conditions: at 20,000 nM inhibitor; kinase activity remaining
# T1 construct: purchased Millipore KinaseProfiler
# [1] = target: T2, PI3 Kinase (p110α (E542K)/p85α) (Homo sapiens, UniProt P42336, E542K); conditions: at 20,000 nM inhibitor; kinase activity remaining
# T2 construct: purchased Millipore KinaseProfiler
# TGFBR1 = target: T3, TGFBR1 (Homo sapiens, UniProt P36897); conditions: at 20,000 nM inhibitor; kinase activity remaining
# T3 construct: purchased Millipore KinaseProfiler
# T3 sequence (P36897 34-503): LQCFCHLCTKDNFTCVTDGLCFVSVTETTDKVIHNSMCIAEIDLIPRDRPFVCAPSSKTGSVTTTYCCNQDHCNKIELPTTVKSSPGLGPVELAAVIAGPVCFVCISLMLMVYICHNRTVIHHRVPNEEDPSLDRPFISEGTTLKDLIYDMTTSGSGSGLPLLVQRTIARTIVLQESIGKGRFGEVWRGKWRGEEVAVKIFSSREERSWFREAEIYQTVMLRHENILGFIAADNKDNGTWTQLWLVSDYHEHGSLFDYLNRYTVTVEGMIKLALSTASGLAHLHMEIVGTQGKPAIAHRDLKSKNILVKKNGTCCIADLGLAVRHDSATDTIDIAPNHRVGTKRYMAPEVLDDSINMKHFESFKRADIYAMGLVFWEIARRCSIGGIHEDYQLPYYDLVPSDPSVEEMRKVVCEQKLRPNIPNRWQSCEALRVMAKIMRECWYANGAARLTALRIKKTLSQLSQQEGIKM
# cKit(D816V) = target: T4, cKit(D816V) (Homo sapiens, UniProt P10721, D816V); conditions: at 20,000 nM inhibitor; kinase activity remaining
# T4 construct: purchased Millipore KinaseProfiler
# BrSK1 = target: T5, BrSK1 (Homo sapiens, UniProt Q8TDC3)
# T5 construct: purchased Millipore KinaseProfiler
# Rsk1(r) = target: T6, Rsk1(r) (Rattus norvegicus, UniProt Q63531); conditions: at 20,000 nM inhibitor; kinase activity remaining
# T6 construct: purchased Millipore KinaseProfiler
# T6 sequence (Q63531 whole entry): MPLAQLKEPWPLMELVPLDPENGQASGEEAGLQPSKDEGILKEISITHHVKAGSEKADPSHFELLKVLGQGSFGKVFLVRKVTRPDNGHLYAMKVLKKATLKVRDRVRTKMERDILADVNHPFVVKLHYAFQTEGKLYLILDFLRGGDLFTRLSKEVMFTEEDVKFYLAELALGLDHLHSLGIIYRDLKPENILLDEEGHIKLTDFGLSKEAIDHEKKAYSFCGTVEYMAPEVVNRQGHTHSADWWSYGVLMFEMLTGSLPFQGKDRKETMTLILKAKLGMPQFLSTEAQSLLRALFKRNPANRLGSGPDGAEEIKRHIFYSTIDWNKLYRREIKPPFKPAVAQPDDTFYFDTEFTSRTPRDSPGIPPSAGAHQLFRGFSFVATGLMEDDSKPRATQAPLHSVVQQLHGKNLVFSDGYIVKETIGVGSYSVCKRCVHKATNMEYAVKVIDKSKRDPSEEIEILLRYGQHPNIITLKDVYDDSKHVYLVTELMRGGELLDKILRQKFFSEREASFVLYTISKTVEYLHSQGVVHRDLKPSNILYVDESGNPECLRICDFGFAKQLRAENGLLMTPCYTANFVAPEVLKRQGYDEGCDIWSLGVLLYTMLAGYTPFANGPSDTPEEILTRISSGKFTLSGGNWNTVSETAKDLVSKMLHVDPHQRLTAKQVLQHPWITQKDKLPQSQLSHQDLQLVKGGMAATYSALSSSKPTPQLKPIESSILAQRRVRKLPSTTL
# MST3 = target: T7, MST3 (Homo sapiens, UniProt Q9Y6E0); conditions: at 20,000 nM inhibitor; kinase activity remaining
# T7 construct: purchased Millipore KinaseProfiler
# T7 sequence (Q9Y6E0 whole entry): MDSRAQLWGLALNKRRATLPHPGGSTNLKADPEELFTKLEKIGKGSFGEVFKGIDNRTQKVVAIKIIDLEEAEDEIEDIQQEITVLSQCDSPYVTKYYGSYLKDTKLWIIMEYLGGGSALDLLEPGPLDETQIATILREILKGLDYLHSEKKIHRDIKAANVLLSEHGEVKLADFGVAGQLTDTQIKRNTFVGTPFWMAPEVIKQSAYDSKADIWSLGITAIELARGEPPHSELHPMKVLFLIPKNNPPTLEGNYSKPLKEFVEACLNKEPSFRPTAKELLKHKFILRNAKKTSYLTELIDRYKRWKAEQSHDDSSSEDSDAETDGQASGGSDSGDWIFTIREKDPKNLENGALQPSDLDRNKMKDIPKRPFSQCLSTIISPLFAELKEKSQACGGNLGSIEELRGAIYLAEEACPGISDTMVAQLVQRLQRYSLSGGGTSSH
# PKCζ = target: T8, PKCζ (Homo sapiens, UniProt Q05513); conditions: at 20,000 nM inhibitor; kinase activity remaining
# T8 construct: purchased Millipore KinaseProfiler
# KDR = target: T9, KDR (Homo sapiens, UniProt P35968); conditions: at 20,000 nM inhibitor; kinase activity remaining
# T9 construct: purchased Millipore KinaseProfiler
# Src(1-530) = target: T10, Src(1-530) (Homo sapiens, UniProt P12931); conditions: at 20,000 nM inhibitor; kinase activity remaining
# T10 construct: purchased Millipore KinaseProfiler
# PKCι = target: T11, PKCι (Homo sapiens, UniProt P41743); conditions: at 20,000 nM inhibitor; kinase activity remaining
# T11 construct: purchased Millipore KinaseProfiler
# T11 sequence (P41743 whole entry): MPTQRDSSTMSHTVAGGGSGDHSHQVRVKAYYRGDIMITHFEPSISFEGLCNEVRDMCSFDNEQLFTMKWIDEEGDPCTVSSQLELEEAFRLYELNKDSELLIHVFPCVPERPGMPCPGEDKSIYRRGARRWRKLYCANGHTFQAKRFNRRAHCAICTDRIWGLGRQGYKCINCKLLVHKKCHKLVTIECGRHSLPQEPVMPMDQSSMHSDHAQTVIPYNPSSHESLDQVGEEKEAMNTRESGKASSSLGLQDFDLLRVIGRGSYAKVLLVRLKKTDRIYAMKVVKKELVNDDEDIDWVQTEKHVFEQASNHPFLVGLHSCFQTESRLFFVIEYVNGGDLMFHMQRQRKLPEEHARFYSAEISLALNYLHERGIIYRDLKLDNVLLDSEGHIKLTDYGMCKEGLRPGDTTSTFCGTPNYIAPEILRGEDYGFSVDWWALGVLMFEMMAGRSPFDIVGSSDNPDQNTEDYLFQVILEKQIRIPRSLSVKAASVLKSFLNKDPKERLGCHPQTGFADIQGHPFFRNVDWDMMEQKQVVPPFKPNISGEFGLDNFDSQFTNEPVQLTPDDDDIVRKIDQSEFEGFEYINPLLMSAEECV
# ALK4 = target: T12, ALK4 (Homo sapiens, UniProt P36896); conditions: at 20,000 nM inhibitor; kinase activity remaining
# T12 construct: purchased Millipore KinaseProfiler
# PI3K-C2γ = target: T13, PI3K-C2γ (Homo sapiens, UniProt O75747); conditions: at 20,000 nM inhibitor; kinase activity remaining
# T13 construct: purchased Millipore KinaseProfiler
# Met(D1246N) = target: T14, Met(D1246N) (Homo sapiens, UniProt P08581, D1228N); conditions: at 20,000 nM inhibitor; kinase activity remaining
# T14 construct: purchased Millipore KinaseProfiler
# JAK2 = target: T15, JAK2 (Homo sapiens, UniProt O60674); conditions: at 20,000 nM inhibitor; kinase activity remaining
# T15 construct: purchased Millipore KinaseProfiler
# Pim-3 = target: T16, Pim-3 (Homo sapiens, UniProt Q86V86); conditions: at 20,000 nM inhibitor; kinase activity remaining
# T16 construct: purchased Millipore KinaseProfiler
# GRK7 = target: T17, GRK7 (Homo sapiens, UniProt Q8WTQ7)
# T17 construct: purchased Millipore KinaseProfiler
# FGFR1(V561M) = target: T18, FGFR1(V561M) (Homo sapiens, UniProt P11362, V561M); conditions: at 20,000 nM inhibitor; kinase activity remaining
# T18 construct: purchased Millipore KinaseProfiler
# CHK2(R145W) = target: T19, CHK2(R145W) (Homo sapiens, UniProt O96017, R145W); conditions: at 20,000 nM inhibitor; kinase activity remaining
# T19 construct: purchased Millipore KinaseProfiler
# Abl(m) = target: T20, Abl(m) (Mus musculus, UniProt P00520); conditions: at 20,000 nM inhibitor; kinase activity remaining
# T20 construct: purchased Millipore KinaseProfiler
# CDK3/cyclinE = target: T21, CDK3/cyclinE (Homo sapiens, UniProt Q00526); conditions: at 20,000 nM inhibitor; kinase activity remaining
# T21 construct: purchased Millipore KinaseProfiler
# T21 sequence (Q00526 whole entry): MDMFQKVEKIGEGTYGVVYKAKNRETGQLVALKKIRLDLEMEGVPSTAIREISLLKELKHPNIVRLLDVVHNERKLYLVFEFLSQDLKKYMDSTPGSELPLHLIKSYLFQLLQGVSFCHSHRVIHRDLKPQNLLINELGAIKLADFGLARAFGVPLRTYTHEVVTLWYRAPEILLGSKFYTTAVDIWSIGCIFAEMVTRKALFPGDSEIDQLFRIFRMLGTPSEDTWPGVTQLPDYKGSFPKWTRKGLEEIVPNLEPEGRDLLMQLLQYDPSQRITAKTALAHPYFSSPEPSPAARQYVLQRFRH
# T21 sequence (P24864 whole entry partner): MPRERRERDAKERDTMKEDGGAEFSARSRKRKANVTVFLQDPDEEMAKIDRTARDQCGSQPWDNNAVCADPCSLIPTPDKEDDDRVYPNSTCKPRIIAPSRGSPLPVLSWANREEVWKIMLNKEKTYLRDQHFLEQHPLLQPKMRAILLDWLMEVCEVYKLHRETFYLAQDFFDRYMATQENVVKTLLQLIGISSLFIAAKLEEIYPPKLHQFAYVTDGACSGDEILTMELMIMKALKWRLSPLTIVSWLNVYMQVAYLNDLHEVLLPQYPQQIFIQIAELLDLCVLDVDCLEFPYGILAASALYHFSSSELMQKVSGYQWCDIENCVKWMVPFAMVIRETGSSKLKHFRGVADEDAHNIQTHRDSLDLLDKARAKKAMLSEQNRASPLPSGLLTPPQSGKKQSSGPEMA
# LKB1 = target: T22, LKB1 (Homo sapiens, UniProt Q15831); conditions: at 20,000 nM inhibitor; kinase activity remaining
# T22 construct: purchased Millipore KinaseProfiler
# MRCKβ = target: T23, MRCKβ (Homo sapiens, UniProt Q9Y5S2); conditions: at 20,000 nM inhibitor; kinase activity remaining
# T23 construct: purchased Millipore KinaseProfiler
# GRK6 = target: T24, GRK6 (Homo sapiens, UniProt P43250)
# T24 construct: purchased Millipore KinaseProfiler
# [2] = target: T25, PI3 Kinase (p110α (E545K)/p85α)(m) (Mus musculus, UniProt P42337, E545K); conditions: at 20,000 nM inhibitor; kinase activity remaining
# T25 construct: purchased Millipore KinaseProfiler
# PAK3 = target: T26, PAK3 (Homo sapiens, UniProt O75914); conditions: at 20,000 nM inhibitor; kinase activity remaining
# T26 construct: purchased Millipore KinaseProfiler
# PDGFRα(D842V) = target: T27, PDGFRα(D842V) (Homo sapiens, UniProt P16234, D842V); conditions: at 20,000 nM inhibitor; kinase activity remaining
# T27 construct: purchased Millipore KinaseProfiler
# AMPKα1 = target: T28, AMPKα1 (Homo sapiens, UniProt Q13131); conditions: at 20,000 nM inhibitor; kinase activity remaining
# T28 construct: purchased Millipore KinaseProfiler
# FGFR2(N549H) = target: T29, FGFR2(N549H) (Homo sapiens, UniProt P21802, N549H); conditions: at 20,000 nM inhibitor; kinase activity remaining
# T29 construct: purchased Millipore KinaseProfiler
# AMPKα2 = target: T30, AMPKα2 (Homo sapiens, UniProt P54646); conditions: at 20,000 nM inhibitor; kinase activity remaining
# T30 construct: purchased Millipore KinaseProfiler
# T30 sequence (P54646 whole entry): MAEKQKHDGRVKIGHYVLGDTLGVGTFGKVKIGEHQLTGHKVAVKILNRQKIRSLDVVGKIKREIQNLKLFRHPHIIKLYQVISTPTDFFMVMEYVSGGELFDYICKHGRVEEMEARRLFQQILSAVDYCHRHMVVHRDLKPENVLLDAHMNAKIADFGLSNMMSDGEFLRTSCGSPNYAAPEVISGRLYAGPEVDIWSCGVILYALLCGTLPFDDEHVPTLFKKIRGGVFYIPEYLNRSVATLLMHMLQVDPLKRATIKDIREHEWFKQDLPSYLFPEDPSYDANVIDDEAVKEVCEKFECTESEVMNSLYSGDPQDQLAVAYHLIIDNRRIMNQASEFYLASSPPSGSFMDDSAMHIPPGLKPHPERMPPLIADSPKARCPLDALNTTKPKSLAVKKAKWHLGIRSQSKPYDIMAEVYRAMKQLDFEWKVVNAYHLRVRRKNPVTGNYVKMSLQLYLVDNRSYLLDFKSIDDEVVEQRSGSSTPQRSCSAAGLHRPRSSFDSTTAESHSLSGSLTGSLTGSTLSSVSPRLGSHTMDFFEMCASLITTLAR
# T30 sequence (Q9Y478 whole entry partner): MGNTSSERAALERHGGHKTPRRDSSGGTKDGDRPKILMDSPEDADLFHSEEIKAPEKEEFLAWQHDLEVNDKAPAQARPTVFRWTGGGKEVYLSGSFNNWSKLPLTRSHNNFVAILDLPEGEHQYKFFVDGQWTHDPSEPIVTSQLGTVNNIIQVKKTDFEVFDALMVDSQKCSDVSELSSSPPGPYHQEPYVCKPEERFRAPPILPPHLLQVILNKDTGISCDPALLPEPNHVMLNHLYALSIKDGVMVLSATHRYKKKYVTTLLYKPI
# T30 sequence (P54619 whole entry partner): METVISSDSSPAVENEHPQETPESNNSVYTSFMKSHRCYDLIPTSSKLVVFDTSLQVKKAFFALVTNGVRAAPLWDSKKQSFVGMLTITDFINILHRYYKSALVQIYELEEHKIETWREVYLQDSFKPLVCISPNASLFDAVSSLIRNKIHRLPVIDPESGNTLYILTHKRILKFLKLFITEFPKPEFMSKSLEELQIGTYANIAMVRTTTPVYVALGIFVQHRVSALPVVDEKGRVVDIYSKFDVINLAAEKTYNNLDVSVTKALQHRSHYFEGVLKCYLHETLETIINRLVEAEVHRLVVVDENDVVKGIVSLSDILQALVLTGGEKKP
# Rsk3 = target: T31, Rsk3 (Homo sapiens, UniProt Q15349); conditions: at 20,000 nM inhibitor; kinase activity remaining
# T31 construct: purchased Millipore KinaseProfiler
# Ros = target: T32, Ros (Homo sapiens, UniProt P08922); conditions: at 20,000 nM inhibitor; kinase activity remaining
# T32 construct: purchased Millipore KinaseProfiler
# PRAK = target: T33, PRAK (Homo sapiens, UniProt Q8IW41); conditions: at 20,000 nM inhibitor; kinase activity remaining
# T33 construct: purchased Millipore KinaseProfiler
# CDK5/p35 = target: T34, CDK5/p35 (Homo sapiens, UniProt Q00535); conditions: at 20,000 nM inhibitor; kinase activity remaining
# T34 construct: purchased Millipore KinaseProfiler
# TSSK1 = target: T35, TSSK1 (Homo sapiens, UniProt Q9BXA7); conditions: at 20,000 nM inhibitor; kinase activity remaining
# T35 construct: purchased Millipore KinaseProfiler
# Fer = target: T36, Fer (Homo sapiens, UniProt P16591); conditions: at 20,000 nM inhibitor; kinase activity remaining
# T36 construct: purchased Millipore KinaseProfiler
# PAK2 = target: T37, PAK2 (Homo sapiens, UniProt Q13177); conditions: at 20,000 nM inhibitor; kinase activity remaining
# T37 construct: purchased Millipore KinaseProfiler
# MKK4(m) = target: T38, MKK4(m) (Mus musculus, UniProt P47809); conditions: at 20,000 nM inhibitor; kinase activity remaining
# T38 construct: purchased Millipore KinaseProfiler
# T38 sequence (P47809 2-397): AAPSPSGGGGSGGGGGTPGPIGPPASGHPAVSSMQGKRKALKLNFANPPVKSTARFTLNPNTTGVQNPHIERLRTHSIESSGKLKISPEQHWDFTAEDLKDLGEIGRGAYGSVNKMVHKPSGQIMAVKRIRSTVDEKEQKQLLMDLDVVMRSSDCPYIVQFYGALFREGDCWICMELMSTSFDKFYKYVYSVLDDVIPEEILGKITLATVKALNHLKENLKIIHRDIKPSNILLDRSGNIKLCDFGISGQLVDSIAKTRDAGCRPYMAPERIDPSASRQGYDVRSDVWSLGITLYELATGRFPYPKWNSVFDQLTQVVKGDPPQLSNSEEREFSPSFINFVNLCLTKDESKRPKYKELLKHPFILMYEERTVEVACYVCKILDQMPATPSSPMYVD
# MSK2 = target: T39, MSK2 (Homo sapiens, UniProt O75676); conditions: at 20,000 nM inhibitor; kinase activity remaining
# T39 construct: purchased Millipore KinaseProfiler
# TBK1 = target: T40, TBK1 (Homo sapiens, UniProt Q9UHD2); conditions: at 20,000 nM inhibitor; kinase activity remaining
# T40 construct: purchased Millipore KinaseProfiler
# MSSK1 = target: T41, MSSK1 (Homo sapiens, UniProt Q9UPE1); conditions: at 20,000 nM inhibitor; kinase activity remaining
# T41 construct: purchased Millipore KinaseProfiler
# BRK = target: T42, BRK (Homo sapiens, UniProt Q13882); conditions: at 20,000 nM inhibitor; kinase activity remaining
# T42 construct: purchased Millipore KinaseProfiler
# Ret = target: T43, Ret (Homo sapiens, UniProt P07949); conditions: at 20,000 nM inhibitor; kinase activity remaining
# T43 construct: purchased Millipore KinaseProfiler
# [3] = at 20,000 nM inhibitor, kinase activity remaining, read-out: % Activity
smiles,measurement,setting,value
"CN(C)c1cc(-c2ccncc2)c(-c2ccc3ccccc3c2)nn1 [MW108, N, N-dimethyl-6-(naphthalen-2-yl)-5-(pyridin-4-yl)pyridazin-3-amine]",activity at 20 µM,ULK3,95%
same,activity at 20 µM,[1],99%
same,activity at 20 µM,TGFBR1,76%
same,activity at 20 µM,cKit(D816V),103%
same,activity at 20 µM,BrSK1,94%
same,activity at 20 µM,Rsk1(r),91%
same,activity at 20 µM,MST3,98%
same,activity at 20 µM,PKCζ,103%
same,activity at 20 µM,KDR,87%
same,activity at 20 µM,Src(1-530),101%
same,activity at 20 µM,PKCι,92%
same,activity at 20 µM,ALK4,95%
same,activity at 20 µM,PI3K-C2γ,50%
same,activity at 20 µM,Met(D1246N),80%
same,activity at 20 µM,JAK2,98%
same,activity at 20 µM,Pim-3,105%
same,activity at 20 µM,GRK7,98%
same,activity at 20 µM,FGFR1(V561M),90%
same,activity at 20 µM,CHK2(R145W),97%
same,activity at 20 µM,Abl(m),89%
same,activity at 20 µM,CDK3/cyclinE,91%
same,activity at 20 µM,LKB1,102%
same,activity at 20 µM,MRCKβ,99%
same,activity at 20 µM,GRK6,98%
same,activity at 20 µM,[2],99%
same,activity at 20 µM,PAK3,78%
same,activity at 20 µM,PDGFRα(D842V),89%
same,activity at 20 µM,AMPKα1,101%
same,activity at 20 µM,FGFR2(N549H),76%
same,activity at 20 µM,AMPKα2,102%
same,activity at 20 µM,Rsk3,83%
same,activity at 20 µM,Ros,87%
same,activity at 20 µM,PRAK,94%
same,activity at 20 µM,CDK5/p35,99%
same,activity at 20 µM,TSSK1,101%
same,activity at 20 µM,Fer,97%
same,activity at 20 µM,PAK2,103%
same,activity at 20 µM,MKK4(m),108%
same,activity at 20 µM,MSK2,91%
same,activity at 20 µM,TBK1,96%
same,activity at 20 µM,MSSK1,86%
same,activity at 20 µM,BRK,85%
same,activity at 20 µM,Ret,94%
"CN(C)c1cc(-c2ccncc2)c(-c2cccc3ccccc23)nn1 [MW181, N,N-dimethyl-6-(naphthalen-1-yl)-5-(pyridin-4-yl)pyridazin-3-amine]",activity at 20 µM,ULK3,106%
same,activity at 20 µM,[1],100%
same,activity at 20 µM,TGFBR1,113%
same,activity at 20 µM,cKit(D816V),103%
same,activity at 20 µM,BrSK1; [3],94%
same,activity at 20 µM,Rsk1(r),93%
same,activity at 20 µM,MST3,98%
same,activity at 20 µM,PKCζ,98%
same,activity at 20 µM,KDR,97%
same,activity at 20 µM,Src(1-530),98%
same,activity at 20 µM,PKCι,82%
same,activity at 20 µM,ALK4,101%
same,activity at 20 µM,PI3K-C2γ,97%
same,activity at 20 µM,Met(D1246N),104%
same,activity at 20 µM,JAK2,111%
same,activity at 20 µM,Pim-3,106%
same,activity at 20 µM,GRK7; [3],102%
same,activity at 20 µM,FGFR1(V561M),93%
same,activity at 20 µM,CHK2(R145W),91%
same,activity at 20 µM,Abl(m),88%
same,activity at 20 µM,CDK3/cyclinE,98%
same,activity at 20 µM,LKB1,100%
same,activity at 20 µM,MRCKβ,115%
same,activity at 20 µM,GRK6; [3],105%
same,activity at 20 µM,[2],99%
same,activity at 20 µM,PAK3,122%
same,activity at 20 µM,PDGFRα(D842V),104%
same,activity at 20 µM,AMPKα1,105%
same,activity at 20 µM,FGFR2(N549H),96%
same,activity at 20 µM,AMPKα2,95%
same,activity at 20 µM,Rsk3,114%
same,activity at 20 µM,Ros,110%
same,activity at 20 µM,PRAK,105%
same,activity at 20 µM,CDK5/p35,95%
same,activity at 20 µM,TSSK1,88%
same,activity at 20 µM,Fer,92%
same,activity at 20 µM,PAK2,101%
same,activity at 20 µM,MKK4(m),91%
same,activity at 20 µM,MSK2,99%
same,activity at 20 µM,TBK1,98%
same,activity at 20 µM,MSSK1,100%
same,activity at 20 µM,BRK,101%
same,activity at 20 µM,Ret,118%
